{
  "source": "patent US8328898B2",
  "about": "“Environment-friendly carbon-nano synergistic complex fertilizers” (priority 2007, dated 2012)",
  "key": {"tomato Jinpengshengguan": {"test_system": "tomato Jinpengshengguan", "assay": "Tomato production experiment (Experiment 11)", "assay_type": "in vivo"}, "winter wheat Jing411": {"test_system": "winter wheat Jing411", "assay": "Winter wheat field experiment, Agricultural Science Research Institute of Daxing District", "assay_type": "in vivo", "details": "for Production increasing rate (comparing with control): in vivo; for Average production per mu: winter wheat Jing411", "from_the_text": "(§1) Experiments below are preceded with general fertilizing amount, and using the same fertilizing amount and the same fertilizing methods."}, "Ventura celery": {"test_system": "Ventura celery", "assay": "Celery production experiment"}, "[1]": {"test_system": "winter wheat Beinong 9549", "assay": "Winter wheat field experiment, demonstration park of high quality agricultural products center", "assay_type": "in vivo", "details": "for Increase rate: vs control; for Average production per mu: winter wheat Beinong 9549, repeated 3 times", "procedure": "Experiments below are preceded with general fertilizing amount, and using the same fertilizing amount and the same fertilizing methods. […] The Agricultural Science Research Institute of […] District, Beijing • D. Qingyundian Station, the Agricultural Science Research Institute of […] District, Bejing • (2) Experimental protocols and production determination of winter wheat in every experimental site […] Production is determined on Jun."}, "corn Jiyuan No. 1": {"test_system": "corn Jiyuan No. 1", "assay": "Corn field experiment", "assay_type": "in vivo", "details": "for Ear weight in the whole area: fresh weight of corn", "from_the_text": "Experiments below are preceded with general fertilizing amount, and using the same fertilizing amount and the same fertilizing methods. 2."}, "winter wheat 9428": {"test_system": "winter wheat 9428", "assay": "Winter wheat field experiment, Qingyundian Station", "assay_type": "in vivo", "details": "for Production per mu: winter wheat 9428", "from_the_text": "as §1"}, "[2]": {"details": "not told"}, "eggplant": {"test_system": "eggplant", "assay": "Production increasing effects on eggplant (Experiment 9)", "assay_type": "in vivo"}, "[3]": {"details": "comparing with ordinary ammonium bicarbonate (ABC)"}, "[4]": {"details": "eggplant seedling, 0.0165 kg fertilizer per plant"}},
  "data": [
    {"compound": "NC(N)=O", "note": "[URA, urea]", "values": [
      {"measurement": "Production increasing rate", "setting": "tomato Jinpengshengguan; control = 0", "result": 9.80, "unit": "%"},
      {"measurement": "Average area production", "setting": "tomato Jinpengshengguan; during growth of tomato, repeated 6 times", "result": 109.65, "unit": "kg"},
      {"measurement": "Production increasing rate (comparing with control)", "setting": "winter wheat Jing411", "result": 0.28, "unit": "%"},
      {"measurement": "Average production per mu", "setting": "winter wheat Jing411", "result": 328.67, "unit": "kg"},
      {"measurement": "Increasing rate comparing with urea", "setting": "Ventura celery; equal weight as urea", "result": 0, "unit": "%"},
      {"measurement": "Average fresh weight of plants", "setting": "Ventura celery; equal weight of fertilizers", "result": 11.55, "unit": "kg/20 plants"},
      {"measurement": "Fresh weight of celery per mu", "setting": "Ventura celery; in vivo", "result": 7703.85, "unit": "kg"},
      {"measurement": "Increase rate comparing with control", "setting": "Ventura celery; in vivo", "result": 30.2, "unit": "%"},
      {"measurement": "Production increased per mu", "setting": "Ventura celery; over control", "result": 1787.56, "unit": "kg"},
      {"measurement": "Increase rate", "setting": "[1]", "result": 17.07, "unit": "%"},
      {"measurement": "Average production per mu", "setting": "[1]", "result": 487, "unit": "kg"},
      {"measurement": "Ear weight in the whole area", "setting": "corn Jiyuan No. 1", "result": 38.1, "unit": "kg"},
      {"measurement": "Production increasing rate comparing with urea", "setting": "corn Jiyuan No. 1; in vivo", "result": 0, "unit": "%"},
      {"measurement": "Production increasing rate", "setting": "winter wheat 9428; control = 0", "result": 10.39, "unit": "%"},
      {"measurement": "Production increasing rate", "setting": "winter wheat 9428; general fertilizer = 0", "result": 5.99, "unit": "%"},
      {"measurement": "Production per mu", "setting": "winter wheat 9428", "result": 425, "unit": "kg"},
      {"measurement": "Average of N2O—N annual emission flux", "setting": "[2]", "result": 71.92, "unit": "μg N2O/m^3-h"},
      {"measurement": "N2O—N annual emission flux range", "setting": "[2]", "result": "−197-2867 μg N2O/m^3-h"},
      {"measurement": "N2O—N emission flux/nitrogen fertilizer applied", "setting": "[2]", "result": 1.98, "unit": "%"}
    ]},
    {"compound": "ammonium bicarbonate [ABC]", "values": [
      {"measurement": "Production increasing rate (comparing with control)", "setting": "winter wheat Jing411", "result": 3.33, "unit": "%"},
      {"measurement": "Average production per mu", "setting": "winter wheat Jing411", "result": 338.69, "unit": "kg"},
      {"measurement": "Increase rate", "setting": "[1]", "result": 15.63, "unit": "%"},
      {"measurement": "Average production per mu", "setting": "[1]", "result": 481, "unit": "kg"},
      {"measurement": "Increasing rate of eggplant fruit weight", "setting": "eggplant; [3]", "result": 0, "unit": "%"},
      {"measurement": "Increasing rate of leaf number", "setting": "eggplant; [3]", "result": 0, "unit": "%"},
      {"measurement": "Increasing rate of plant height", "setting": "eggplant; [3]", "result": 0, "unit": "%"},
      {"measurement": "Leaf number 1", "setting": "eggplant; eggplant seedling", "result": 15, "unit": "number"},
      {"measurement": "Leaf number 2", "setting": "eggplant; eggplant seedling", "result": 33, "unit": "number"},
      {"measurement": "Leaf number 3", "setting": "eggplant; eggplant seedling", "result": 4, "unit": "number"},
      {"measurement": "Leaf number 4", "setting": "eggplant; eggplant seedling", "result": 26, "unit": "number"},
      {"measurement": "Leaf number 5", "setting": "eggplant; eggplant seedling", "result": 28, "unit": "number"},
      {"measurement": "Leaf number 6", "setting": "eggplant; eggplant seedling", "result": 15, "unit": "number"},
      {"measurement": "Leaf number 7", "setting": "eggplant; eggplant seedling", "result": 28, "unit": "number"},
      {"measurement": "Plant height 1", "setting": "eggplant; [4]", "result": 64, "unit": "cm"},
      {"measurement": "Plant height 2", "setting": "eggplant; [4]", "result": 64, "unit": "cm"},
      {"measurement": "Plant height 3", "setting": "eggplant; [4]", "result": 32, "unit": "cm"},
      {"measurement": "Plant height 4", "setting": "eggplant; [4]", "result": 75, "unit": "cm"},
      {"measurement": "Plant height 5", "setting": "eggplant; [4]", "result": 65, "unit": "cm"},
      {"measurement": "Plant height 6", "setting": "eggplant; [4]", "result": 61, "unit": "cm"},
      {"measurement": "Plant height 7", "setting": "eggplant; [4]", "result": 62, "unit": "cm"},
      {"measurement": "Average height", "setting": "eggplant; eggplant seedling, 7 plants", "result": 56.72, "unit": "cm"},
      {"measurement": "Average leaf number", "setting": "eggplant; eggplant seedling, 7 plants", "result": 21.28, "unit": "number"},
      {"measurement": "Eggplant fruit weight", "setting": "eggplant; in vivo", "result": 1.46, "unit": "kg"},
      {"measurement": "Increasing weight of eggplant fruit", "setting": "eggplant; over ordinary ammonium bicarbonate (ABC)", "result": 0, "unit": "kg"},
      {"measurement": "Ear weight in the whole area", "setting": "corn Jiyuan No. 1", "result": 39.6, "unit": "kg"},
      {"measurement": "Production increasing rate comparing with ammonium bicarbonate", "setting": "corn Jiyuan No. 1; in vivo", "result": 0, "unit": "%"},
      {"measurement": "Production increasing rate comparing with urea", "setting": "corn Jiyuan No. 1; in vivo", "result": 4.07, "unit": "%"},
      {"measurement": "Production increasing rate", "setting": "winter wheat 9428; control = 0", "result": 3.12, "unit": "%"},
      {"measurement": "Production per mu", "setting": "winter wheat 9428", "result": 397, "unit": "kg"}
    ]}
  ]
}
